# Data as given in patent US8557851B2, “Combinations of flupirtine and sodium channel inhibiting substances for treating pains” (MEDA Pharma GmbH & Co. KG, priority 2003, dated 2013).
# Legend:
# [1] = system: skeletal muscle tone of conscious mice; assay: Skeletal muscle tone in mice in the inclined screen test; format: in vivo, mouse (NMRI); conditions: Mus musculus, ip, single substance, read-out: ED50, decrease of skeletal muscle tone (inclined screen test)
# Experimental: NMRI mice weighing 22-24 g were kept in groups of four under standard conditions (temperature 22° C., humidity 40-60%) without any restriction in food and water. Illumination was provided from 6 a.m. to 6 p.m. All the experiments were approved by the local animal health committee which was responsible for the protection and proper use of experimental animals.
# What is termed the “30 degrees inclined screen test” (Simiand et al., Arch Int Pharmacodyn Ther 1989; 297:272-85) was used as a pharmacological model which enables predictions to be made regarding muscle-relaxing properties. The inclined screen consists of a wooden frame containing a wire gauze screen which can be inclined at any arbitrary angle (in this present case: […]). The lower part of the screen is located 15 cm above the table. The animals are placed on the inclined screen and their ability to remain on the inclined screen is observed over a period of 30 s. The number of animals which fall from the screen is counted and the proportion it represents of the total number in each group is calculated. The active compounds were prepared freshly every day and were administered simultaneously i.p. at various doses, at 1 h before beginning the experiments, for analyzing the skeletal muscle tone.
# The statistical analysis of the differences between the calculated and measured values were performed by means of a one-way ANOVA. […]
# [2] = system: reserpine-induced skeletal muscle rigidity; assay: Muscle-relaxing effect on reserpine-induced muscular rigidity in rats; format: in vivo, rat (male Sprague-Dawley); conditions: Rattus norvegicus, ip, read-out: ED50, reduction of reserpine-induced skeletal muscle rigidity
# Experimental: Male Sprague-Dawley rats weighing 200-220 g were kept in groups of two under standard conditions (temperature 22° C., humidity 40-60%) without any restriction in food or water. Illumination was provided from 6 a.m. to 6 p.m. The experiments were approved by the local animal health committee which was responsible for the protection and proper use of experimental animals.
# The experimental approach has already been described in detail (Nickel et al. Arzn Forsch/Drug Res 1997; 47:1081-6). In brief, the rigidity of the skeletal muscle was measured by consecutively measuring the resistance of the flexor and extensor muscles which act in opposition when stretching and bending the foot in the joint. The pressure differences which were generated by the movement of the foot were recorded continuously. The signals were analyzed using a PC program which calculated the resistances of the flexor and extensor at the foot over periods of 10 min.
# The active compounds were prepared freshly every day and were administered simultaneously i.p. at various doses 16 h after the reserpine injection (2 mg/kg, intraperitoneally).
# The statistical analysis of the differences between the calculated and measured values was performed by means of a one-way. ANOVA. Asterisks (*) denote the significant level p<0.01.
Compound,ED50 [1],ED50 [2]
CCOC(=O)Nc1ccc(NCc2ccc(F)cc2)nc1N [flupirtine],10.8 mg/kg,6.45 mg/kg
Cc1ccc(C(=O)C(C)CN2CCCCC2)cc1 (stereo not shown) [tolperisone],51 mg/kg,32.4 mg/kg
